# Assay results published in patent US10578610B2, “Peptide regulators of mitochondrial fusion and methods of use” (priority 2016, dated 2020).
# Ends that are not written are not given here.
# Legend:
# [1] = system: mice subjected to cerebral ischemia; experiment: Temporary middle cerebral artery (MCA) occlusion followed by reperfusion; format: in vivo
# Experimental: Studies were done to study the effects of TetherX-1 (SEQ ID NO:24) administration on cerebral tissue damage in mice in which ischemia was induced. In this blinded and placebo-controlled studies, 40 mice were subjected to temporary (40 minutes) middle cerebral artery (MCA) occlusion followed by reperfusion for 24 hours. Brains were removed and analyzed for direct and indirect infarct area and volume. […] Moreover, TetherX-1 administration reduced cerebral deficit (FIG. 20) and cerebral swelling (FIG. 21).
# [2] = system: cultured rat motor neurons infected with adeno-Mfn2 K109A; experiment: Motor neurons infected with adeno-Mfn2 K109A; format: cell-based; settings: 1 μM for 24 hours vs TAT control
# Experimental: The efficacy of TAT-367-384Gly to correct mitochondrial pathology induced by a GTPase-defective Mfn2 mutant was examined in the CMT2A-relevant cell type, motor neurons. Motor neurons were isolated from E17 Sprague-Dawley rats and cultured as described in Wang et al., 2013, Hum Mol Genet 22:4706-4719. After 10 days in culture, neurons were infected twice, 8 hours apart, with 50 MOI of adenoviral WT-Mfn2 or K109A Mfn2 and treated with 1 μM TAT-367-384 Gly or control TAT peptide for 24 hours. Mitochondria of formalin-fixed nerons were labeled with anti-TOM20 (Santa Cruz Biotechnology). Neurons were stained with Hoechst 33342. Laser confocal imaging using a 63× oil objective was used to identify isolated mitochondria for determination of aspect ratio.
# Representative anti-TOM20/Hoechst images of formalin-fixed cultured neurons infected with adeno-Mfn2K109A (FIG. 15A) or adeno-WT Mfn2 (FIG. 15B) and treated for 24 h with 1 μM TAT control (Ctrl) or TAT-367-384Gly minipeptide. Scale bars are 10 microns. N=20-23 per treatment group; *=P<0.05 vs Ctrl (Student's t-test).
# [3] = system: hippocampal and cortical neurons carrying Mfn2 T105M fl/st; experiment: Hippocampal and cortical neurons with induced Mfn2 T105M; format: cell-based, mouse; settings: Mfn2 T105M induced by adeno-Cre; 1 μM for 24 hours
# Experimental: Finally, to test the efficacy of fusion promotion by conformational manipulation in a model of a naturally-occurring human CMT2A mutation, hippocampal and cortical neurons were cultured from mouse pups carrying the conditional Mfn2 T105M fl/st expression allele.
# Hippocampal and cortical neurons were prepared from individual P0-P1 mouse pups using a modification of methods described for rat neuronal culture (Mennerick et al., 1995, J Neurophysiol, 73:320-332). Mouse pups were genotyped after the fact to determine presence or absence of the MFN2*T105M transgene; neurons derived from mice lacking the transgene were designated as normal controls. […] Immunoblot of Mfn2 expression in T105M fl/st cortical neurons 72 h after adeno-Cre or adeno-β-gal (Ctrl) is shown in FIG. 16B with quantitative data to the right (n=4). […]
# Merged live confocal images of cultured neurons without (no Cre) and with (+Cre) Mfn2 T105M induction, and in Mfn2 T105M-induced neurons 24 h after addition of 1 μM TAT-367-384Gly are shown in FIG. 16C. […] Quantitative data are provided in FIG. 16E; each point is result from one of 3 independently-established Mfn2 T105M neuronal cultures, each with 3 biological replicates of ˜20 neurons. *=P<0.01 vs no Cre; #=P<0.01 vs T105M+Cre.
# [4] = 3 mg/kg intravenously 1 hour before ischemia and immediately prior to reperfusion, vs vehicle
# [5] = 3 mg/kg intravenously, vs vehicle
Sequence,"direct infarct area ([1]; 3 mg/kg intravenously 1 hour before ischemia and immediately prior to reperfusion, 40 minutes MCA occlusion, reperfusion 24 hours, vs vehicle (water))","direct infarct volume [1, 4]","indirect infarct area [1, 4]","indirect infarct volume [1, 4]","cerebral deficit [1, 5]","cerebral swelling [1, 5]",mitochondrial fragmentation (aspect ratio) [2],"neuronal mitochondrial dysmorphology with fragmentation, partial depolarization and clumping [3]"
QDRLKFIDKQGELLAQDYKLRGGYGRKKRRQRRR [TAT-398-418Gly],decrease,decrease,decrease,decrease,reduced,reduced,–,–
QIAEAVRGIMDSLHMAARGGYGRKKRRQRRR [TAT-367-384Gly],–,–,–,–,–,–,fully normalized,largely reversed these abnormalities
